From patent US7875609B2, “Urea derivatives, processes for their preparation, their use as medicaments, and pharmaceutical compositions containing them” (Galapagos Sasu, priority 2005, dated 2011) come the findings set out here.

Assay [1] relates to serum level of PTH (1-34+1-84). Briefly: PTH measurement on intact rats (serum PTH by IRMA after oral administration). The assay is classed as in vivo, rat. Particulars: for inhibition in vivo at 30 mg/kg: Rattus norvegicus, 0.5 h, oral, male Sprague-Dawley rats fasted 16 h, serum 30 min after dosing, read-out: % PTH reduction at 30 min. relative to the untreated group (intact rat). The method, then: I—PTH Measurement on Intact Rats
After fasting for 16 hours, some male rats (Sprague-Dawley, 250-300 g, Charles River France or CERJ) received an oral administration of the compounds to be tested or their vehicle. 30 min. after this bolus, the animals were slaughtered by decapitation using a guillotine. The arterial and venous blood was collected at 4° C. and centrifuged cold, then the sera were frozen at −20° C. After thawing, the serum level of PTH (1-34+1-84) was measured by a radioimmunology test (IRMA kit, rat, Immutopics).

The test system of assay [2] is serum level of PTH (1-34+1-84). Briefly: PTH measurement in rats with chronic renal failure (5/6 nephrectomy). The assay is classed as in vivo, rat. Conditions: oral, dose 10 mg/kg, 5/6 nephrectomised rats, ten days after nephrectomy, fasted 16 h, serum 30 min after dosing. The source says:
II—Rats with Chronic Renal Failure
Chronic renal failure (CRF) was induced in male rats (220-250 g, Sprague-Dawley, CERJ) by ablation of ⅚ of the total renal mass. After anaesthesia (Imalgene 1000), the rats were subjected to exeresis of the right kidney and ablation of both ends of the left kidney, representing approximately ⅔ of the organ).
The incision was cauterised by application of dry ice. To compensate for the loss of blood volume, the animals received an intravenous injection of physiological serum. Two days after the procedure and for the remainder of the trial, the rats were fed with a standard diet (UAR or Safe) and drank phosphate-enriched (1.2%) Volvic® water at will. The procedure was carried out either at the supplier's or at the laboratory. Ten days after nephrectomy, the animals which had been fasting for 16 hours entered the trial. The compounds to be tested or their vehicle were administered orally 30 min. prior to sacrifice. The arterial and venous blood was at 4° C. after decapitation using a guillotine and was centrifuged cold. The sera were frozen a −20° C. After thawing, the serum level of PTH (1-34+1-84) was measured by a radioimmunology test (IRMA kit, rat, Immutopics).

Counter-ions that a name gives are not always drawn.

Regarding `CC(C)OC(=O)c1cccc(NC(=O)N(CCC(c2ccccc2)c2ccccc2)CCN2CCOCC2)c1` [Example 48, 3-[3-(3,3-diphenylpropyl)-3-(2-morpholin-4-ylethyl)ureido]benzoic acid isopropyl ester hydrochloride], the inhibition in vivo at 30 mg/kg in assay [1] came out at 32%.

On to `Cl.O=C(Nc1cccc(-c2cnco2)c1)N(CCC(c1ccccc1)c1ccccc1)CCN1CCOCC1` [Example 68, 1-(3,3-diphenylpropyl)-1-(2-morpholin-4-ylethyl)-3-(3-oxazol-5-ylphenyl)urea hydrochloride], for which the “% PTH reduction at 30 min. relative to the untreated group (CRF rat)” value in assay [2] was 67%. In assay [1], the inhibition in vivo at 30 mg/kg came to 94%. In assay [1] (oral administration, dose of 30 mg/kg, intact rats, 30 min), the “PTH level reduced relative to the control group” value is on record as 94%. Turning to `COC(=O)c1cccc(NC(=O)N(CCC(c2ccccc2)c2ccccc2)CCN2CCOCC2)c1` [Example 1, 3-[3-(3,3-diphenylpropyl)-3-(2-morpholin-4-ylethyl)ureido]benzoic acid methyl ester], in assay [1], the inhibition in vivo at 30 mg/kg amounted to 56%. Take `CCC(=O)c1cccc(NC(=O)N(CCC(c2ccccc2)c2ccccc2)CCN2CCOCC2)c1` [Example 42]: the inhibition in vivo at 30 mg/kg in assay [1] came out at 69%. Take `O=C(Nc1ccc(Cl)c(C(F)(F)F)c1)N(CCC(c1ccccc1)c1ccccc1)CCN1CCOCC1` [Example 43, 3-(4-chloro-3-trifluoromethylphenyl)-1-(3,3-diphenylpropyl)-1-(2-morpholin-4-ylethyl)urea hydrochloride]: the inhibition in vivo at 30 mg/kg in assay [1] worked out at 43%. Consider `Cn1nnc(-c2cccc(NC(=O)N(CCC(c3ccccc3)c3ccccc3)CCN3CCOCC3)c2)n1` (single isomer, unassigned) [Example 85, 1-(3,3-diphenylpropyl)-3-[3-(2-methyl-2H-tetrazol-5-yl)phenyl]-1-(2-morpholin-4-ylethyl)urea], for which the “% PTH reduction at 30 min. relative to the untreated group (CRF rat)” value in assay [2] is 70%. In assay [1], the inhibition in vivo at 30 mg/kg came to 88%.

Consider `O=C(Nc1cccc(-c2ccco2)c1)N(CCC(c1ccccc1)c1ccccc1)CCN1CCOCC1` [Example 76A, 1-(3,3-diphenylpropyl)-3-(3-furan-2-ylphenyl)-1-(2-morpholin-4-ylethyl)urea hydrochloride], for which the inhibition in vivo at 30 mg/kg in assay [1] was determined as 14%. Still for that read-out and setting: with `CC(C)OC(=O)c1cc(NC(=O)N(CCC(c2ccccc2)c2ccccc2)CCN2CCOCC2)ccc1Cl` [Example 51, 2-chloro-5-[3-(3,3-diphenylpropyl)-3-(2-morpholin-4-ylethyl)ureido]benzoic acid isopropyl ester hydrochloride] the figure was 13%; with `CC(C)(C)OC(=O)c1cccc(NC(=O)N(CCC(c2ccccc2)c2ccccc2)CCN2CCOCC2)c1` [Example 40, 3-[3-(3,3-diphenylpropyl)-3-(2-morpholin-4-ylethyl)ureido]benzoic acid tertbutyl ester hydrochloride], 21%.
